Results on ten compounds are retold here after patent US8367723B2, “Selenoquinone-derived active organometallic complexes, methods for synthesizing same, and uses thereof” (Centre National de la Recherche Scientifique—CNRS, priority 2009, dated 2013).

As a reminder, the pIC50 is the negative decadic logarithm of the IC50, by convention in mol/L. Read a low pIC50 as a large IC50.

pIC50: −log10 of the molar value. A value given as a limit tells only on which side of the number the result lay.

In assay [1] the test system is A2780cisR (cisplatin-resistant) ovarian cancer cells. Nature of the assay: MTT cytotoxicity test on A2780cisR (cisplatin-resistant) ovarian cancer cells. The class given is cell-based. The conditions noted are these: A2780cisR (cisplatin-resistant) cell line, 72 hours incubation. The protocol:
(§1) The biological (cytotoxicity) properties of the complexes synthesized above were tested on A2780 and A2780cisR (cisplatin-resistant) ovarian cancer cells according to a conventional procedure described below, and the IC50 values obtained were compared with those obtained under the same conditions with the cisplatin complex Pt (NH3)2Cl2.
(§2) The A2780 and A2780cisR ovarian cancer cell lines were obtained from The European Collection of Cell Cultures (ECACC) (Salisbury, UK). The cells were cultured in RPMI medium comprising glucose, 5% of fetal calf serum (FCS) and antibiotics, at 37° C. and 5% CO2.
(§3) The cytotoxicity was determined using the MTT (3-(4,5-dimethyl-2-thiazolyl)-2,5-diphenyl-2H-tetrazolium bromide) test (MOSMANN, 1983).
(§4) The cells were distributed in 96-well plates, as monolayers, with 100 μl of solution (approximately 20 000 cells) per well, and were preincubated for 24 hours in a medium supplemented with 10% of FCS.
(§5) The compounds were prepared in DMSO solution, were then dissolved in the culture medium and were successively diluted to the appropriate concentration, in order to obtain a final DMSO concentration of 0.5%. 100 μl of solution of these compounds were added to each well and the plates were incubated for 72 hours. Subsequently, MTT (5 mg/ml) was added to the cells and the plates were incubated for 2 hours. The culture medium was removed by suction and the purple formazan crystals formed by the mitochondrial dehydrogenase activity of the living cells were dissolved in DMSO.
(§6) The optical density, which is directly proportional to the number of living cells, was quantified at 540 nm using a multiwell plate reader and the fraction of living cells was quantified from the absorbance of untreated control cells. Evaluation was carried out from two independent experiments, each comprising 3 microcultures per concentration level.
For orientation: Formazan colour is commonly taken as a measure of viable cells.

The test system of assay [2] is A2780 ovarian cancer cells. In words: MTT cytotoxicity test on A2780 ovarian cancer cells. The conditions noted are these: A2780 ovarian cancer cell line, 72 hours incubation. The class given is cell-based. How it is done: as §1, §2, §3, §4, §5, §6

On to `N.N.[Cl][Pt][Cl]` [cis-[Pt(NH3)2Cl2], cis-diamminedichloroplatinum(II)], for which the pIC50 in assay [1] is 4.60; in assay [2], 5.52.
Regarding “o-[(C5Me5)Ir(η^4-benzoquinone)] [compound 3]”, the pIC50 in assay [2] is < 3.40.
Compound “o-[(C5Me5)Ir(η^4-dithiobenzoquinone)] [compound 5]” gave a pIC50 in assay [2] of 4.31.
Same read-out and setting: as for “o-[(C5Me5)Rh(η^4-benzoquinone)] [compound 1]”, the figure is < 3.40.
For the compound “p-[(C5Me5)Ir(η^4-2,5-dimethyldiselenobenzoquinone)] [compound 10]”, the figures for the pIC50 in assay [1] and in assay [2] were 5.14 and 5.21, respectively.
Consider “p-[(C5Me5)Ir(η^4-benzoquinone)] [compound 4]”, for which the pIC50 in assay [2] is 4.03.
Still for that read-out and setting: as for “p-[(C5Me5)Ir(η^4-diselenobenzoquinone)] [compound 8]”, the figure is 5.30; as for “p-[(C5Me5)Ir(η^4-dithiobenzoquinone)] [compound 6]”, 3.81.
Turning to “p-[(C5Me5)Ir(η^4-monoselenobenzoquinone)] [compound 9]”, the pIC50 is 5.08 in assay [1] and 4.91 in assay [2].
On to “p-[(C5Me5)Rh(η^4-benzoquinone)] [compound 2]”, for which the pIC50 in assay [2] was < 3.40.
